In paper PMC9096233, “Identification of an Au(I) N-Heterocyclic Carbene Compound as a Bactericidal Agent Against Pseudomonas aeruginosa” (Frontiers in Chemistry, 2022):
In brackets after ≈: the same amount, converted by molar mass. Read-outs that look alike come from different tables or passages of the source.

Key:
[1] = tested on: P. aeruginosa; test: Bacterial membrane permeability, propidium iodide flow cytometry; format: cell-based, Pseudomonas aeruginosa; conditions: 30 min, PI staining
Description: Overnight P. aeruginosa culture was diluted 1:100 with fresh M9 medium and grown to early-mid exponential phase (OD600 = 0.4–0.6). […] Then the bacteria were incubated with propidium iodide (PI), a dye that is excluded from cells with impermeable membrane. The CytoFLEX flow cytometry (Beckman Coulter) was used to measure the bacterial fluorescent intensities and the data was analyzed using CytExpert 2.4 software. For the time-course detection of the bacterial permeability induced by Au1 or auranofin, P. aeruginosa in early-mid exponential phase (OD600 = 0.2) was incubated with PI dye on a 96-well plate. Au1 or auranofin was added to a final concentration of 50 μM. The fluorescence signal (561 nm excitation, 590 nm emission) and OD600 value were recorded on Cytation5 microplate reader. Each experiment was performed in triplicates.

[2] = tested on: lung carcinoma A549 cell; test: MTT cytotoxicity assay; format: cell-based, Human; conditions: 48 h
Description: The cytotoxicity of gold compounds to mammalian cells was measured using the 3-(4, 5-dimethylthiazol-2-yl)-2, 5-diphenyltetrazolium bromide (MTT) assay. Human hepatocyte L-O2 cell, and lung carcinoma A549 cell were cultured in Corning 96 well microplates (10^4 cells per well) at 37°C for 18 h. Then the cells were incubated with gradient concentrations of gold compounds at 37°C for another 48 h. After the treatment, cell culture media were removed and the plates were wash with PBS for three times. And 90 μL fresh media and 10 μL 5 mg/ml MTT solution were added to each well and further incubated at 37°C for 4 h. Subsequently, the media were removed from the wells and 150 μL DMSO was added into each well to dissolve the formazan crystals. The absorbance at 490 nm of each well was measured with a micro-plate reader. The experiments were carried out in triplicates.

[3] = tested on: rhamnolipid; test: Rhamnolipid measurement (anthrone); format: cell-based, Pseudomonas aeruginosa; conditions: 15 μM
Description: To quantify the secreted virulence factors, overnight P. aeruginosa PAO1 was diluted in fresh M9 medium and cultured to a final OD600 value of 0.15. Then Au1 or auranofin were added into culture with indicated concentrations. After 24 h incubation at 37°C, the bacterial supernatants were collected by centrifugation at 4,000 g for 10 min at 4°C and filtered using a 0.22 μm syringe filter (Millipore). The secreted virulence factors in the supernatant were quantified by the methods described below.
For rhamnolipid measurement, rhamnolipid was extracted from the supernatant with a mixture of chloroform and methanol (v:v = 2:1). The organic solvent phase was then evaporated to dryness and 100 μL methanol was added to dissolve the extracted rhamnolipid. Then 200 μL of pre-cooled anthrone solution (dissolving 2 g of anthrone in 1 L of concentrated H2SO4) was added into 20 μL extracted rhamnolipid sample and heat at 80°C for 30min. The rhamnolipid concentration was determined by measurement the absorbance at 630 nm.

[4] = tested on: P. aeruginosa PAO1; test: Mouse skin wound infection model; format: in vivo
Description: Six-week-old female BALB/c mice were used for animal experiments to evaluate the healing effect of infected wounds in vivo. Briefly, mouse backs were cut to generate a circular wound (diameter 0.6 cm) with a hole punch and the wound was infiltrated using a medical cotton swab with P. aureginosa (overnight culture, OD600 = 0.3). The mice were randomly divided into three groups, including PBS, auranofin, and Au-1 groups (n = 5 in each group). The drugs were dissolved in DMSO and diluted with glycerol to a final concentration of 50 μM. After the bacterial fluid was dry, about 20 μL of the drug was added to the wound. Body weights and wound photography was recorded on days 0, 1, 3, 5, and 8. And on the 8th day, the mice were euthanized by chloral hydrate, the infectious tissues in all groups were collected and cultured into the LB plate for colony counting. The skin tissues were also fixed by paraformaldehyde solution (4%) for H&E, Gram, and Masson’s trichrome staining.
The above results promoted us to further investigate whether the Au1 compound was also efficacious in an in vivo animal infection model. To this end, we used a mouse wound infection model to assess the anti-P. aeruginosa efficacy of Au1 as described previously ([Liao et al., 2017b]). In brief, a circular wound with a diameter of 6 mm was created on the flank of mice, and approximately 5 × 10^8 CFU of P. aeruginosa PAO1 were dipped onto the wound by medical cotton swab to induce infection. Treatment is administered on the 1st day with auranofin or Au1 compound (50 μM, 20 μL) was applied to the wounds. The wound sizes and mice weights were recorded each day. On the 8th day, the infection sites were excised and part of the tissues was fixed in 4% paraformaldehyde and embedded in paraffin. Four-micrometer sections were cut, stained with Gram, H&E, and Masson’s trichrome stain. The remained tissues were homogenized and serially diluted for CFU quantification (Figure 6A).

[5] = tested on: Pseudomonas aeruginosa strain PAO1; test: MIC by standard broth dilution; format: cell-based
Description: (§1) Pseudomonas aeruginosa strain PAO1 (P. aeruginosa) was grown in M9 minimal medium (1.0 g/L NH4Cl, 0.5 g/L NaCl, 6.0 g/L Na2HPO4, 3.0 g/L KH2PO4) supplemented with 1.0 mM MgSO4, 1.0 mM ZnSO4, 0.2 mM CaCl2, 0.4% (w/v) glucose and 0.2% (w/v) casein hydrolysate. Gram-negative Escherichia coli strain K-12 (E. coli) and Burkholderia cepacia J2315 (B. cepacia) were cultured in Luria-Bertani (LB) medium (5 g/L yeast extract, 10 g/L tryptone, 10 g/L sodium chloride). The Gram-positive Staphylococcus aureus strain Newman (S. aureus) was grown in Tryptic Soy Broth (TSB) medium (17 g/L Tryptone, 3 g/L Phytone, 5 g/L sodium chloride, 2.5 g/L dipotassium phosphate and glucose 2.5 g/L).
(§2) The minimal inhibitory concentration (MIC) values of the gallium compounds were determined using a standard broth dilution method as described previously ([Wiegand et al., 2008]). In brief, the compounds were two-fold serially diluted to concentrations from 400 to 1.56 μM. Approximately 50 μL of the compound solution was added to a 96-well microtiter plate and mixed with 50 μL of bacteria culture in log phase (10^6 CFU/ml). The bacterial culture was further incubated at 37°C for 22–24 h. The OD600 values for each well was recorded on a microplate reader. The MICs value was defined as the lowest compound concentration that inhibited 95% of the bacterial growth.

[6] = tested on: Escherichia coli MG16552; test: MIC by standard broth dilution; format: cell-based; conditions: Table S1
Description: as §1, §2

[7] = tested on: Staphylococcus aureus Newman; test: MIC by standard broth dilution; format: cell-based; conditions: Table S1
Description: as §1, §2

[8] = tested on: Burkholderia cepacia J2315; test: MIC by standard broth dilution; format: cell-based; conditions: Table S1
Description: as §1, §2

[9] = tested on: P. aeruginosa; test: Bacterial growth curves; format: cell-based, Pseudomonas aeruginosa; conditions: 25 μM
Description: as §1

[10] = tested on: P. aeruginosa; test: Drug resistance development assay (serial passage); format: cell-based, Pseudomonas aeruginosa; conditions: over 14 days
Description: Development of resistance to the Au1 compound and the antibiotics (ciprofloxacin and tobramycin) were assessed as described by [Habets and Brockhurst (2012)]. The MIC assay was performed on the first day as described above. […] Thereafter, a new passage MIC measurement assay was prepared using diluted bacterial cells grown at 0.5-fold MIC suspension. This was repeated for 14 passages and the MIC values for Au1, ciprofloxacin and tobramycin were recorded for each passage.

[11] = Pseudomonas aeruginosa PAO1, Table S1, read-out: MIC

CC(=O)OC[C@H]1O[C@@H]([S-])[C@H](OC(C)=O)[C@@H](OC(C)=O)[C@@H]1OC(C)=O.CCP(CC)CC.[Au+] [Au9, auranofin]
bacterial fluorescence signal compared with the control group ([1]; 50 μM): did not significantly affect | IC50 [2]: 2800 ± 400 nM | synthesis of rhamnolipid [3]: significantly suppress | toxicity to the mice (mice weights) ([4]; 50 μM, 20 μL on wound, 8 days): no significant toxicity | bacteria in wound tissue (Gram staining) ([4]; 8th day): large number of bacteria | bacteria remained live in the infection sites ([4]; 8th day, CFU): approximately 70% | MIC ([5]; P. aeruginosa PAO1, lowest concentration inhibiting 95% of growth, 22–24 h, Table 1, listed as auranofin): higher than 400 μM | MIC ([5]; P. aeruginosa PAO1, lowest concentration inhibiting 95% of growth, 22–24 h, Table 1, read-out: MIC): >400 µM | MIC [5, 11]: >100 µM | MIC [6]: >100 µM | MIC [7]: <1.56 µM | MIC [8]: >100 µM | impact on the bacterial growth [9]: little impact

CC1(C)S[C@@H]2[C@H](NC(=O)C(C(=O)O)c3ccccc3)C(=O)N2[C@H]1C(=O)O (some centres unmarked) [Carbenicillin]
MIC [5, 11]: > 100 µM | MIC [6]: 25 µM (≈ 9.46 µg/mL) | MIC [7]: 6.25 µM (≈ 2.37 µg/mL) | MIC [8]: > 100 µM

O=C(O)c1cn(C2CC2)c2cc(N3CCNCC3)c(F)cc2c1=O [Ciprofloxacin, ciprofloxacin]
MIC [5, 11]: < 1.56 µM | MIC [6]: < 1.56 µM | MIC [7]: < 1.56 µM | MIC [8]: 25 µM (≈ 8.28 µg/mL) | increase of MIC values [10]: 30 times

NC[C@H]1O[C@H](O[C@H]2[C@H](O)[C@@H](O[C@H]3O[C@H](CO)[C@@H](O)[C@H](N)[C@H]3O)[C@H](N)C[C@@H]2N)[C@H](N)C[C@@H]1O [Tobramycin, tobramycin]
MIC [5, 11]: 12.5 µM (≈ 5.84 µg/mL) | MIC [6]: 50 µM (≈ 23.4 µg/mL) | MIC [7]: 25 µM (≈ 11.7 µg/mL) | MIC [8]: > 100 µM | increase of MIC values [10]: 30 times

polymyxin B
bacterial fluorescence signal compared with the control group ([1]; 5 μM): remarkably increased | MIC [5, 11]: <1.56 µM | MIC [6]: <1.56 µM | MIC [7]: >100 µM | MIC [8]: >100 µM
